≈ marks a conversion by molar mass, not a printed value.
Legend:
[1] = system: Staphylococcus epidermidis; conditions: cited from earlier work
Bacillus subtilis = conditions: cited from earlier work
Streptococcus pyogenes = conditions: cited from earlier work
Streptococcus bovis = conditions: cited from earlier work
Staphylococcus aureus = conditions: cited from earlier work
Streptococcus faecium = conditions: cited from earlier work
Streptococcus faecalis = conditions: cited from earlier work
[2] = cited from earlier work
Listeria monocytogenes = conditions: cited from earlier work
plasma protein = conditions: cited from earlier work
[3] = system: Corynebacterium diphtheria; conditions: cited from earlier work
[4] = cited from earlier work; remark: listed apart in the source
[5] = In-vitro skin permeation, Franz diffusion cells; format: in vitro ADME, human
Description: The patch was studied for the transdermal permeation of EN using human cadaver skin and Franz diffusion cells (FIG. 2A). Three films each with an area of 4 cm^2 square patch were cut from patch film. The skin was cut into 1.5 cm by 1.5 cm pieces, and mount on the Franz diffusion cells with orifice diameter of 9 mm (FIG. 2B). The release liner was removed from the films and the matrix surface was placed in contact with the skin. The area of 0.64 cm^2 of the skin was in contact with the receiving medium. The receiver compartment was sampled at 1, 2, 4, 8, 12 and 24 hr by withdrawing 0.5 mL of the receiving medium and replacing with equal volume of pH 7.4 PBS. At the end of 24 hr, epidermis and dermis were heat separated and extracted for EN content.

[6] = Drug release rate from acrylate patch; format: physicochemical
Description: The percentage of TU was maintained at a concentration off 1%. Three concentrations of EN (1% w/w, 2.5% w/w and 5% w/w) and three concentrations of PG (5% w/w, 10% w/w and 20% w/w) were evaluated. The acrylate films were first fabricated with DURO-TAK® 87-4098. The total weight of the mixture was 5 g. Methanol was the only solvent used for dissolving the components in the acrylates films. The purpose of this was to screen out what concentration of EN and PG could be added into the polymer to form an acceptable patch. Then according to the EN and PG concentration determined from the DURO-TAK® 87-4098 films, fabricated patches using acrylate grades DURO-TAK® 87-2287, DURO-TAK® 87-4287 and DURO-TAK® 87-9301.
Drug release from hydrophobic polymers is slow. The adhesives polymer used are hydrophobic polymers. To increase polymer chain mobility, the addition of a hydrophobic plasticizer was considered. Triacetin (TAC) and triethyl citrate (TEC) were the selected plasticizers. The adhesive polymer acrylate had been selected as the best polymer system. TAC or TEC was added into the acrylate polymer at three different levels. These were, 5%, 10% and 20% (based on the 5 g matrix weight).

[7] = Drug saturation solubility study; conditions: PVP 1% and 5% solution compared to phosphoric buffer pH 7.4 and pH 5 (P<0.05)
[8] = cited from earlier work; remark: listed apart in the source
[9] = Crystallization in patch films (visual observation); format: physicochemical
Description: The drug (EN) and the PEs, thiourea (TU) and propylene glycol (PG), were dissolved or uniformly dispersed in the pressure sensitive adhesive(s) (PSAs), and spread onto a release liner. The drug (EN) and the nail PE (TU) were weighed out in a glass bottle and dissolved in solvent (methanol) and vortexed for 1 min. Then PG was weighed and added as solubilizer for EN and plasticizer for the patch. The solution was vortexed with the methanol as solvent until a single phase was obtained. Afterwards, the hydrophobic plasticizers triethyl citrate and hydrophilic polymer polyvinylpyrrolidone were weighed and mixed with the solvents prior to addition of PG. Finally the polymer was weighed out into the glass bottle and vortexed for 5 min to form a homogenous mixture. The formulae for the patch include but are not limited to those in Table 3. The bottles were then placed on the bottle roller and mixed overnight at medium speed to complete the mixing and remove the air bubbles generated during vortexing the polymer. […]
The percentage of TU was maintained at a concentration off 1%. Three concentrations of EN (1% w/w, 2.5% w/w and 5% w/w) and three concentrations of PG (5% w/w, 10% w/w and 20% w/w) were evaluated. […] Then according to the EN and PG concentration determined from the DURO-TAK® 87-4098 films, fabricated patches using acrylate grades DURO-TAK® 87-2287, DURO-TAK® 87-4287 and DURO-TAK® 87-9301. […]

[10] = format: in vitro ADME, human
Description: The cadaver toenails were cut into 7 mm×7 mm (49 mm^2) pieces. The nail pieces were then hydrated at 100% RH overnight prior to start of experiment. The hydrated nail pieces were placed in the neoprene nail adapters (FIG. 2A) with orifice diameter of 5 mm. The receiver compartment was filled with pH 7.4 PBS (3 mL) containing 0.1% w/v gentamicin sulfate and the assembly was maintained at 32±1° C. throughout the duration of the experiment. Each sample was tested in triplicate. The patch in absence of thiourea was used as the control. The patches with diameter of 5 mm were cut. The release liner was removed and the drug matrix was placed in contact with the nail. The new patch was applied every 24 hrs for 14 days. Throughout the duration of the study, the Franz cells were dosed with a new patch daily. On the days 2, 4, 6, 8, 10, 12 and 14, 0.5 mL of the sample was withdrawn from the receiver compartment and replaced with equal volume of new receiving medium.

[11] = Nail penetration study in PVP solution; conditions: 1% and 5% PVP group compared to phosphoric buffer pH 7.4 and pH 5 groups
dermatomycoses = conditions: topical, dermatological studies, treatment period 2 to 6 weeks; cited from earlier work

Structure (SMILES) | MIC [1] [µg/mL] | MIC (Bacillus subtilis) [µg/mL] | MIC (Streptococcus pyogenes) [µg/mL] | MIC (Streptococcus bovis) [µg/mL] | MIC (Staphylococcus aureus) [µg/mL] | MIC (Streptococcus faecium) [µg/mL] | MIC (Streptococcus faecalis) [µg/mL] | MIC (Listeria monocytogenes) [µg/mL] | MIC [3] [µg/mL] | aqueous solubility [4] | other results
Clc1ccc(COC(Cn2ccnc2)c2ccc(Cl)cc2Cl)cc1 (stereo not shown) [econazole] | 12.5 (≈ 32.7 µM) | 12.5 (≈ 32.7 µM) | 12.5 (≈ 32.7 µM) | 6.25 (≈ 16.4 µM) | 12.5 (≈ 32.7 µM) | 25 (≈ 65.5 µM) | 25 (≈ 65.5 µM) | 1.56 (≈ 4.09 µM) | 0.78 (≈ 2.04 µM) | – | unchanged drug in urine ([2]; human, in vivo): No unchanged econazole is detected; dose recovered in urine and feces ([2]; vaginal cream, over 96 hours): less than 3%; plasma protein binding (plasma protein): greater than 98%
Clc1ccc(COC(Cn2ccnc2)c2ccc(Cl)cc2Cl)c(Cl)c1 (stereo not shown) [miconazole base, miconazole] | 6.25 (≈ 15 µM) | 3.12 (≈ 7.5 µM) | 6.25 (≈ 15 µM) | 3.12 (≈ 7.5 µM) | 6.25 (≈ 15 µM) | 25 (≈ 60.1 µM) | 25 (≈ 60.1 µM) | 1.56 (≈ 3.75 µM) | 0.39 (≈ 0.937 µM) | – | –
Cc1cc(C2CCCCC2)n(O)c(=O)c1 [CPO, ciclopirox] | – | – | – | – | – | – | – | – | – | 1.4 mg/mL (≈ 6750 µM) | –
Clc1ccc(COC(Cn2ccnc2)c2ccc(Cl)cc2Cl)cc1 (stereo not shown) [econazole nitrate, Econazole nitrate] | – | – | – | – | – | – | – | – | – | 1.5 micrograms/ml | drug amount in the receiver compartment ([5]; human cadaver skin, after 24 hours): no drug amount appeared; drug amount in the dermis ([5]; patch with thiourea vs without, 24 hr): no significant difference; drug amount in the epidermis ([5]; patch with thiourea, 24 hr): 5.63 ug/cm^2; drug amount in the epidermis ([5]; patch without thiourea, 24 hr): 1.73 ug/cm^2; drug release rate ([6]; acrylate patch in absence of PVP): 22.347 μg/cm^2/hour; drug release rate ([6]; acrylate patch with 1% PVP): 26.713 μg/cm^2/hour; drug release rate ([6]; acrylate patch with 5% PVP): 27.853 μg/cm^2/hour; saturation solubility [7]: significantly higher; Water Solubility ([8]; at 19° C.): <0.1 g/100 mL at 19 °C; Log P [8]: 5.5; pKa [8]: 6.77; crystallization in patch ([9]; acrylate PSA patch, drug load 5% w/w, no PG added): slight crystallization; crystallization in patch ([9]; acrylate patch screening, EN concentration raised to 5% w/w): crystallization occurred; topically applied drug remaining on the skin surface ([2]; as a cream, patients): about 90%; drug amount in nail plate [10]: significantly increase; amount penetrated into the nail plate [11]: significantly higher; patients cured (dermatomycoses): about 90%

Reference: patent US12303491B2, “Econazole nitrate medical patch and methods of use thereof” (Temple University-Of The Commonwealth System of Higher …, priority 2017, dated 2025)
